Reference: patent EP0293146A1, “Benzofuro [3,2-c] quinoline compounds” (Kissei Pharmaceutical Co Ltd, priority 1987, dated 1988)

These compounds were tested on Femur was isolated from 9-day chick embryo (assay: Stimulatory effect on ossification (femur organ culture, calcium content)). Settings: 10-^5 M; cultivated for 6 days; eluted calcium versus paired control femur; mean value of 6 observations.
Type: cell-based
Protocol: Stimulatory effect of various compounds on ossification was tested according to the method described in "Advanced Tissue Cultures For In Vitro Assay And Production" (pages 111-114, edited by Isao Yamane & Hiroyoshi Endo, Published by SOFT SCIENCE, Inc. Tokyo).
Femur was isolated from 9-day chick embryo. After cleaned from adherent soft tissues, one femur of a paired femur was used for a test of compound of the present invention, and the other femur was used as control group. One preparation was placed directly on the inner surface of a glass roller-tube, and 2 ml of BGJb-HW2 culture medium was added to each tube. Each preparation was cultivated at 37° C by the roller-tube method (10 revolutions/hr) for 6 days. During the cultivation, femur length was measured, and the culture medium was freshed every other day. Tested compounds were dissolved in dimethylsulfoxide at a concentration of 0.01 M and the solution was diluted by the culture medium to make a final concentraiton of 10-^5 M of those compounds. In the case of control group, the same volume of dimethylsulfoxide was added.
After completion of the cultivation, the bone was immersed in 1 N HCI for 24 hours to elute all calcium in the bone, and the eluted calcium was determined by chelating method using orthocresolphthalein.
The potency of the stimulatory effect on ossification of presented compounds was calculated by the following equation. [formula]
The results are shown in the following table as the mean value of 6 observations.

Structure (SMILES) | Stimulatory potency on ossification
O=c1[nH]c2cc(O)ccc2c2oc3cc(O)ccc3c12 [Compound 2, 3,9-Dihydroxy-5H-benzofuro[3,2-c]quinolin-6-one] | 1.11
CC(C)Oc1ccc2c(c1)[nH]c(=O)c1c3ccc(O)cc3oc21 [Compound 9, 9-Hydroxy-3-isopropoxy-5H-benzofuro[3,2-c]quinolin-6-one] | 1.08
O=c1[nH]c2cc(OCCCO)ccc2c2oc3cc(O)ccc3c12 [Compound 11, 9-Hydroxy-3-(3-hydroxypropoxy)-5H-benzofuro[3,2-c]quinolin-6-one] | 1.14

What follows are compounds tested on femur of rats loaded low calcium diets (assay: Effect on calcium and phosphorus contents in femur of rats loaded low calcium diets). Settings: 300 mg/kg orally once a day for 2 weeks, mean±standard error of the mean of 10 observations.
Type: in vivo, male Wistar rats
Protocol: Twenty male Wistar rats of 3 weeks age were divided into 2 groups. All animals were raised with low calcium diets. Test compound, 3,9-dihydroxy-5H-benzofuro [3,2-c]quinolin-6-one (compound 2) suspended in 0.5% sodium carboxymethyl cellulose solution (CMC) was orally administered to 1 group at a dose of 300 mg/kg once a day for 2 weeks. Another group recieved the same volume of CMC. After completion of the experiment, calcium and phosphorus contents in the femur were determined.
The results were shown in the following table as mean±standard error of the mean of 10 observations.

Structure (SMILES) | Amount of calcium (mg/femur) | Amount of phosphorus (mg/femur)
O=c1[nH]c2cc(O)ccc2c2oc3cc(O)ccc3c12 [Compound 2, 3,9-Dihydroxy-5H-benzofuro[3,2-c]quinolin-6-one] | 8.1±0.50 | 5.1±0.26

Each compound was assayed on Femur was isolated from 10- to 11-day chick embryo (assay: not given). Settings: 100 µM.

Structure (SMILES) | Inhibitory potency on bone resorption
O=c1[nH]c2cc(O)ccc2c2oc3ccccc3c12 [Compound 1, 3-Hydroxy-5H-benzofuro[3,2-c]quinolin-6-one] | 1.24
O=c1[nH]c2cc(O)ccc2c2oc3cc(O)ccc3c12 [Compound 2, 3,9-Dihydroxy-5H-benzofuro[3,2-c]quinolin-6-one] | 1.97
O=c1[nH]c2cc(O)ccc2c2oc3ccc(O)cc3c12 [Compound 3, 3,8-Dihydroxy-5H-benzofuro[3,2-c]quinolin-6-one] | 2.52
CC(C)Oc1ccc2c(c1)[nH]c(=O)c1c3ccccc3oc21 [Compound 4, 3-Isopropoxy-5H-benzofuro[3,2-c]quinolin-6-one] | 1.16
O=c1[nH]c2cc(OCCCO)ccc2c2oc3ccccc3c12 [Compound 5, 3-(3-Hydroxypropoxy)-5H-benzofuro[3,2-c]quinolin-6-one] | 1.26
CCOC(=O)C(C)Oc1ccc2c(c1)[nH]c(=O)c1c3ccccc3oc21 (stereo not drawn) [Compound 6, 3-(1-Ethoxycarbonylethoxy)-5H-benzofuro[3,2-c]quinolin-6-one] | 1.10
CC(Oc1ccc2c(c1)[nH]c(=O)c1c3ccccc3oc21)C(=O)O (stereo not drawn) [Compound 7, 3-(1-Carboxyethoxy)-5H-benzofuro[3,2-c]quinolin-6-one] | 1.10
CC(C)Oc1ccc2c(c1)[nH]c(=O)c1c3ccc(OC(C)C)cc3oc21 [Compound 8, 3,9-Diisopropoxy-5H-benzofuro[3,2-c]quinolin-6-one] | 1.24
CC(C)Oc1ccc2c(c1)[nH]c(=O)c1c3ccc(O)cc3oc21 [Compound 9, 9-Hydroxy-3-isopropoxy-5H-benzofuro[3,2-c]quinolin-6-one] | 2.89
O=c1[nH]c2cc(OCCCO)ccc2c2oc3cc(OCCCO)ccc3c12 [Compound 10, 3,9-Bis(3-hydroxypropoxy)-5H-benzofuro[3,2-c]quinolin-6-one] | 1.40
O=c1[nH]c2cc(OCCCO)ccc2c2oc3cc(O)ccc3c12 [Compound 11, 9-Hydroxy-3-(3-hydroxypropoxy)-5H-benzofuro[3,2-c]quinolin-6-one] | 2.89
CCOC(=O)C(C)Oc1ccc2c(c1)[nH]c(=O)c1c3ccc(OC(C)C(=O)OCC)cc3oc21 (stereo not drawn) [Compound 12, 3,9-Bis(1-ethoxycarbonylethoxy)-5H-benzofuro[3,2-c]quinolin-6-one] | 1.16
COc1ccc2c(c1)[nH]c(=O)c1c3ccc(OC)cc3oc21 [Compound 13, 3,9-Dimethoxy-5H-benzofuro[3,2-c]quinolin-6-one] | 1.04
